This passage reports IC50 results from patent publication US10875875B2, “Propionic acid derivatives and methods of use thereof” (Aviara Pharmaceuticals, Inc., priority 2017, dated 2020).

Like-named read-outs stand apart in the source and are kept apart here. Where only a bound is given, the exact number is not on record here.

The term IC50 denotes the concentration that inhibits the measured activity by half.

For experiment [1], the target named is T1, α4β7 (Homo sapiens, UniProt P13612+P26010).
T1 sequence (P13612 34-1032): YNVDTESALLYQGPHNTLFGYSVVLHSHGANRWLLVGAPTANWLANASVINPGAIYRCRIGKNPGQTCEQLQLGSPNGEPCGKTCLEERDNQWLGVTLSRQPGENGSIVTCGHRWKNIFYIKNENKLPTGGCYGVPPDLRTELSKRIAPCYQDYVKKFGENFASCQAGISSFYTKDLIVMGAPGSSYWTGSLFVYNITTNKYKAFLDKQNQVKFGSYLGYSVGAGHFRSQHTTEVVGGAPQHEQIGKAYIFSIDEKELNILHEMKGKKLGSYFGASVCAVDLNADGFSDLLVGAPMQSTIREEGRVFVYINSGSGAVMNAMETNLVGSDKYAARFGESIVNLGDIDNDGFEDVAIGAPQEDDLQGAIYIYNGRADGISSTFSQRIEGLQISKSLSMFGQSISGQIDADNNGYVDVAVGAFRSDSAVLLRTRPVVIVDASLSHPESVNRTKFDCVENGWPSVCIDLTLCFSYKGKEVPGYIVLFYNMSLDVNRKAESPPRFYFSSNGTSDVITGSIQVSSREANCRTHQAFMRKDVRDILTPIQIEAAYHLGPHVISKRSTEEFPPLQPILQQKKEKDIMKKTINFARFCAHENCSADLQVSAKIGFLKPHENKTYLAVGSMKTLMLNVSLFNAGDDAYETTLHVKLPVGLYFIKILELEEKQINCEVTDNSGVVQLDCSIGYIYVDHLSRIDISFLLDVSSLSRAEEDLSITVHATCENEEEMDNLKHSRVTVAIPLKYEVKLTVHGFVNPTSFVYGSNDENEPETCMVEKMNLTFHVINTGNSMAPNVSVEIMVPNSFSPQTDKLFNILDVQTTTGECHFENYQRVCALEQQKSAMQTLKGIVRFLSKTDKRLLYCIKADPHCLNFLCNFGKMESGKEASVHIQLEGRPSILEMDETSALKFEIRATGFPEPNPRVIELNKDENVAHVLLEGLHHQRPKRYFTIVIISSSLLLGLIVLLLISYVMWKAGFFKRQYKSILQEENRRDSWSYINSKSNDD
T1 sequence (P26010 20-798): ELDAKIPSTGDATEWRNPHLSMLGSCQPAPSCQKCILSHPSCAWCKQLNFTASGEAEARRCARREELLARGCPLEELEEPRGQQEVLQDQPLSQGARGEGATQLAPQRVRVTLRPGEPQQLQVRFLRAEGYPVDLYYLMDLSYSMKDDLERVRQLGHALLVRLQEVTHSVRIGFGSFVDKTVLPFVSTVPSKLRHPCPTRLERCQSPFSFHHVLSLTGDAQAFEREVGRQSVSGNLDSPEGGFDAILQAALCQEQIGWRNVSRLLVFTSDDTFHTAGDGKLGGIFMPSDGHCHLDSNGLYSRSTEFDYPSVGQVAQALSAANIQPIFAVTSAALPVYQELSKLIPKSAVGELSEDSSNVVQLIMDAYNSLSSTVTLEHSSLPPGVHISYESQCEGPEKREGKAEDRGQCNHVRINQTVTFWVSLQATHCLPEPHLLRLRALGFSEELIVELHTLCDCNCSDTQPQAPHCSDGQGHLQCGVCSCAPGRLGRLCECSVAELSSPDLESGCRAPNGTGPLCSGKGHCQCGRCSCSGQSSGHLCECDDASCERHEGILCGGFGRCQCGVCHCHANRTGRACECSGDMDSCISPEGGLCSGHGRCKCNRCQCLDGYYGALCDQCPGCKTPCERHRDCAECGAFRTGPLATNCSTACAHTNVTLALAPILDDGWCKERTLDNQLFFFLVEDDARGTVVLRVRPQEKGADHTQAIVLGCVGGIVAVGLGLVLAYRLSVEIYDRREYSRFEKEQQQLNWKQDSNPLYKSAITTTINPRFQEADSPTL
The experiment is described as follows: α4β7 integrin inhibition, IC50. The experiment is classed as binding.

Experiment [2] has as its target α4β1 (Homo sapiens, UniProt P05556+P13612). The experiment in a line: α4β1 integrin inhibition, IC50. The experiment is classed as binding.

Sequence of α4β1 (P05556 21-798, one chain of several): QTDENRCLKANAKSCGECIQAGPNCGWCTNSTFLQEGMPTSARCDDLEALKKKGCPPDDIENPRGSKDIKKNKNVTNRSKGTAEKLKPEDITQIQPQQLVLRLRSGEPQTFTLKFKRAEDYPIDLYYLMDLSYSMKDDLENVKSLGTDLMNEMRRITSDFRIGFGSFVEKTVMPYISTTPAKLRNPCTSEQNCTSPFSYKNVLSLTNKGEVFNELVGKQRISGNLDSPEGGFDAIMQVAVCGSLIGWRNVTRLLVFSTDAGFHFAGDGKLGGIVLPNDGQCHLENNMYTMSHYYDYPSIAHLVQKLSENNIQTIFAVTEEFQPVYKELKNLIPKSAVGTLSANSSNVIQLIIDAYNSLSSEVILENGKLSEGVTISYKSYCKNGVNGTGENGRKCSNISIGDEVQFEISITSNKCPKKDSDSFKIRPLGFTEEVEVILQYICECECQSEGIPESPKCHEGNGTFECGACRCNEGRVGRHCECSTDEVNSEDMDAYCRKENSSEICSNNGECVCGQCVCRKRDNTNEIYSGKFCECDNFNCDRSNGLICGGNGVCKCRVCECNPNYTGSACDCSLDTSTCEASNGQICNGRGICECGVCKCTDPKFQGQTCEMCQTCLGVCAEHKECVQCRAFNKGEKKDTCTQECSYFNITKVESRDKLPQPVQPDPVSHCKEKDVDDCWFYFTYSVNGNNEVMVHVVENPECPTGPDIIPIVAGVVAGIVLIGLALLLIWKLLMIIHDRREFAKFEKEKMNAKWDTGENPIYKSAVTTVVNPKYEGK

On to `Cc1cccc(C)c1-c1ccc(F)c([C@H](CC(=O)O)NC(=O)Nc2c(O)ccn(C)c2=O)c1` [1-590, sodium (S)-3-(4-fluoro-2′,6′-dimethylbiphenyl-3-yl)-3-(3-(1-methyl-4-oxido-2-oxo-1,2-dihydropyridin-3-yl)ureido)propanoate], for which the IC50 in experiment [1] and in experiment [2] (read-out: α4β1 IC50) was below 20 nM each time.

For `CCc1ccccc1-c1cccc([C@H](CC(=O)O)NC(=O)Nc2c(O)c(C)cn(C)c2=O)c1` [1-492, sodium (S)-3-(3-(1,5-dimethyl-4-oxido-2-oxo-1,2-dihydropyridin-3-yl)ureido)-3-(2′-ethylbiphenyl-3-yl)propanoate], in experiment [2] (read-out: α4β1 IC50), the IC50 is below 20 nM.

For the compound `Cc1cscc1-c1ccc([C@H](CC(=O)O)NC(=O)Nc2c(O)cc(C)n(C)c2=O)s1` [1-585, sodium (S)-3-(3-(1,6-dimethyl-4-oxido-2-oxo-1,2-dihydropyridin-3-yl)ureido)-3-(4′-methyl-2,3′-bithiophen-5-yl)propanoate], the IC50 in experiment [2] (read-out: α4β1 IC50) is below 20 nM.

As for `CCn1cc(C)c(O)c(NC(=O)N[C@@H](CC(=O)O)c2cccc(-c3ccccc3C)c2)c1=O` [1-443, sodium (S)-3-(3-(1-ethyl-5-methyl-4-oxido-2-oxo-1,2-dihydropyridin-3-yl)ureido)-3-(2′-methylbiphenyl-3-yl)propanoate], the IC50 in experiment [2] (read-out: α4β1 IC50) was below 200 nM.

In the case of `COc1cccc(-c2cccc([C@H](CC(=O)O)NC(=O)Nc3c(O)ccn(C)c3=O)c2)c1F` [1-509, sodium (S)-3-(2′-fluoro-3′-methoxybiphenyl-3-yl)-3-(3-(1-methyl-4-oxido-2-oxo-1,2-dihydropyridin-3-yl)ureido)propanoate], the IC50 in experiment [2] (read-out: α4β1 IC50) was below 20 nM.

As to `COc1cccc(-c2cc(OC)cc([C@H](CC(=O)O)NC(=O)Nc3c(O)cc(C)n(C)c3=O)c2)c1` [1-567, sodium (S)-3-(3′,5-dimethoxybiphenyl-3-yl)-3-(3-(1,6-dimethyl-4-oxido-2-oxo-1,2-dihydropyridin-3-yl)ureido)propanoate], in experiment [2] (read-out: α4β1 IC50), the IC50 was below 20 nM.

Regarding `Cn1ccc(O)c(NC(=O)N[C@@H](CC(=O)O)c2cccc(-c3ccc(OC(F)(F)F)cc3)c2)c1=O` [1-510, sodium (S)-3-(3-(1-methyl-4-oxido-2-oxo-1,2-dihydropyridin-3-yl)ureido)-3-(4′-(trifluoromethoxy)biphenyl-3-yl)propanoate], the IC50 in experiment [2] (read-out: α4β1 IC50) is below 20 nM.

As to `Cc1cc(-c2ccc(F)cc2F)cc([C@H](CC(=O)O)NC(=O)Nc2c(O)cc(C)n(C)c2=O)c1` [1-575, sodium (S)-3-(2′,4′-difluoro-5-methylbiphenyl-3-yl)-3-(3-(1,6-dimethyl-4-oxido-2-oxo-1,2-dihydropyridin-3-yl)ureido)propanoate], the IC50 in experiment [2] (read-out: α4β1 IC50) is below 20 nM.

In the case of `COc1cc([C@H](CC(=O)O)NC(=O)Nc2c(O)c(C)cn(C)c2=O)cc(-c2ccccc2)c1OC` [1-475, sodium (S)-3-(5,6-dimethoxybiphenyl-3-yl)-3-(3-(1,5-dimethyl-4-oxido-2-oxo-1,2-dihydropyridin-3-yl)ureido)propanoate], in experiment [2] (read-out: α4β1 IC50), the IC50 was below 200 nM.

With `COc1cc(-c2cccc(OC(F)(F)F)c2)cc([C@H](CC(=O)O)NC(=O)Nc2c(O)cc(C)n(C)c2=O)c1` [1-568, sodium (S)-3-(3-(1,6-dimethyl-4-oxido-2-oxo-1,2-dihydropyridin-3-yl)ureido)-3-(5-methoxy-3′-(trifluoromethoxy)biphenyl-3-yl)propanoate], in experiment [2] (read-out: α4β1 IC50), the IC50 was below 20 nM.

On to `Cc1cn(C)c(=O)c(NC(=O)N[C@@H](CC(=O)O)c2cccc(-c3ccccc3)c2)c1O` [1-437, sodium (S)-3-(biphenyl-3-yl)-3-(3-(1,5-dimethyl-4-oxido-2-oxo-1,2-dihydropyridin-3-yl)ureido)propanoate], for which the IC50 in experiment [2] (integrin not named at the place, read-out: IC50) was below 20 nM.

With `Cn1ccc(O)c(NC(=O)N[C@@H](CC(=O)O)c2cccc(-c3cccs3)c2)c1=O` [1-532, sodium (S)-3-(3-(1-methyl-4-oxido-2-oxo-1,2-dihydropyridin-3-yl)ureido)-3-(3-(thiophen-2-yl)phenyl)propanoate], in experiment [2] (read-out: α4β1 IC50), the half-inhibitory concentration (IC50) is below 20 nM.

As for `Cc1cn(C)c(=O)c(NC(=O)NC(CC(=O)O)c2cccc(-c3ccc(Cl)cc3Cl)c2)c1O` (stereo not drawn) [1-511, sodium 3-(2′,4′-dichlorobiphenyl-3-yl)-3-(3-(1,5-dimethyl-4-oxido-2-oxo-1,2-dihydropyridin-3-yl)ureido)propanoate], the IC50 in experiment [2] (read-out: α4β1 IC50) was below 200 nM.

`Cn1ccc(O)c(NC(=O)N[C@@H](CC(=O)O)c2ccc(-c3ccccc3)s2)c1=O` [1-613, sodium (S)-3-(3-(1-methyl-4-oxido-2-oxo-1,2-dihydropyridin-3-yl)ureido)-3-(5-phenylthiophen-2-yl)propanoate]: the IC50 in experiment [2] (read-out: α4β1 IC50) is below 20 nM.

For the compound `COc1cccc(-c2cc([C@H](CC(=O)O)NC(=O)Nc3c(O)cc(C)n(C)c3=O)ccc2OC)c1` [1-551, sodium (S)-3-(3′,6-dimethoxybiphenyl-3-yl)-3-(3-(1,6-dimethyl-4-oxido-2-oxo-1,2-dihydropyridin-3-yl)ureido)propanoate], in experiment [2] (read-out: α4β1 IC50), the IC50 was below 20 nM.

With `Cc1cc(O)c(NC(=O)N[C@@H](CC(=O)O)c2cc(-c3cccc(OC(F)(F)F)c3)ccc2F)c(=O)n1C` [1-595, sodium (S)-3-(3-(1,6-dimethyl-4-oxido-2-oxo-1,2-dihydropyridin-3-yl)ureido)-3-(4-fluoro-3′-(trifluoromethoxy)biphenyl-3-yl)propanoate], in experiment [2] (read-out: α4β1 IC50), the IC50 is below 20 nM.

For `CCn1cc(C)c(O)c(NC(=O)N[C@@H](CC(=O)O)c2cccc(-c3ccc(C)cc3)c2)c1=O` [1-444, sodium (S)-3-(3-(1-ethyl-5-methyl-4-oxido-2-oxo-1,2-dihydropyridin-3-yl)ureido)-3-(4′-methylbiphenyl-3-yl)propanoate], the IC50 in experiment [2] (read-out: α4β1 IC50) was below 200 nM.

As to `Cc1cn(C)c(=O)c(NC(=O)N[C@@H](CC(=O)O)c2ccc(-c3ccccc3)s2)c1O` [1-628, sodium (S)-3-(3-(1,5-dimethyl-4-oxido-2-oxo-1,2-dihydropyridin-3-yl)ureido)-3-(5-phenylthiophen-2-yl)propanoate], the IC50 in experiment [2] (read-out: α4β1 IC50) is below 200 nM.

In the case of `Cc1ccc([C@H](CC(=O)O)NC(=O)Nc2c(O)ccn(C)c2=O)cc1-c1c(C)cccc1C` [1-545, sodium (S)-3-(3-(1-methyl-4-oxido-2-oxo-1,2-dihydropyridin-3-yl)ureido)-3-(2′,6,6′-trimethylbiphenyl-3-yl)propanoate], the IC50 in experiment [2] (read-out: α4β1 IC50) is below 20 nM.

In the case of `Cn1ccc(O)c(NC(=O)N[C@@H](CC(=O)O)c2cccc(-n3ncc4ccccc43)c2)c1=O` [1-518, sodium (S)-3-(3-(1H-indazol-1-yl)phenyl)-3-(3-(1-methyl-4-oxido-2-oxo-1,2-dihydropyridin-3-yl)ureido)propanoate], the 50% inhibitory concentration (IC50) in experiment [2] (read-out: α4β1 IC50) is below 20 nM.

Take `Cn1ccc(O)c(NC(=O)N[C@@H](CC(=O)O)c2ccc(F)c(-c3c(F)cccc3F)c2)c1=O` [1-546, sodium (S)-3-(3-(1-methyl-4-oxido-2-oxo-1,2-dihydropyridin-3-yl)ureido)-3-(2′,6,6′-trifluorobiphenyl-3-yl)propanoate]: the IC50 in experiment [2] (read-out: α4β1 IC50) was below 20 nM.

Regarding `COc1ccc(-c2cccc([C@H](CC(=O)O)NC(=O)Nc3c(O)c(C)cn(C)c3=O)c2)cc1OC` [1-469, sodium (S)-3-(3′,4′-dimethoxybiphenyl-3-yl)-3-(3-(1,5-dimethyl-4-oxido-2-oxo-1,2-dihydropyridin-3-yl)ureido)propanoate], in experiment [2] (read-out: α4β1 IC50), the IC50 is below 20 nM.

Take `Cc1ccc([C@H](CC(=O)O)NC(=O)Nc2c(O)c(C)cn(C)c2=O)cc1-c1ccccc1` [1-448, sodium (S)-3-(3-(1,5-dimethyl-4-oxido-2-oxo-1,2-dihydropyridin-3-yl)ureido)-3-(6-methylbiphenyl-3-yl)propanoate]: in experiment [2] (read-out: α4β1 IC50), the half-inhibitory concentration (IC50) was below 200 nM.
